Source: US12558428B2, “Heterobifunctional compounds and their use in treating disease” (Halda Therapeutics OpCo, Inc., priority 2024, dated 2026)
Read-outs that look alike come from different tables or passages of the source.

Tests used:
Type in all cases: cell-based
[1] = test system: T-Rex 293 cells lacking increased expression of estrogen receptor alpha protein; assay: Cellular growth inhibition assay, T-Rex 293 cells, (−) doxycycline; settings: T-REx-293, 72 h, 72 hours
Summary of the method: (§1)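 ERα overexpression was switched on by 3 ng/mL doxycycline in a stably transfected T-Rex 293 clone, while uninduced cells served as the comparison line. Proliferation over 72 h of compound treatment was assessed by ATP luminescence, and GI50 values came from four-parameter curves.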

[2] = test system: T-Rex 293 cells having increased expression of estrogen receptor alpha protein; assay: Cellular growth inhibition assay, T-Rex 293 cells, (+) doxycycline; settings: T-REx-293, 72 h, 72 hours
Summary of the method: as §1

[3] = test system: MCF7 cells (ATCC #HTB-22); assay: Cellular growth inhibition assay, MCF7 cells purchased from ATCC; settings: Homo sapiens, MCF7, 144 h, Table 8-A; MCF7 cells purchased from ATCC; six days; CellTiter-Glo; read-out: GI50
Summary of the method: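 MCF7 cells in RPMI 1640 with 10% FBS and 0.2 U/ml insulin, seeded at 1,500 cells/well (ATCC) or 225 cells/well (ECACC). Compounds added 24 h later, then 6 days at 37° C. Viability by CellTiter-Glo 2.0 luminescence. GI50 from four-parameter fit.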

[4] = Table 7-A, T-Rex 293 cells without doxycycline (lacking increased ERα expression), CellTiter-Glo, read-out: (−) Dox GI50
[5] = Table 7-A, T-Rex 293 cells with doxycycline (increased ERα expression), CellTiter-Glo, read-out: (+) Dox GI50

| GI50 [3] | Compound | GI50 ([1]; T-Rex 293 cells without doxycycline, CellTiter-Glo 2.0, read-out: (−) Dox TRex ERa (GI50)) | GI50 ([2]; T-Rex 293 cells with doxycycline-induced ERα expression, CellTiter-Glo 2.0, read-out: (+) Dox TRex ERa (GI50)) | GI50 [1, 4] | GI50 [2, 5] |
| --- | --- | --- | --- | --- | --- |
| 50 to 500 nM | CCN(CCOCCOCCOCCOCCNC(=O)C[C@@H]1N=C(c2ccc(Cl)cc2)c2c(sc(C)c2C)-n2c(C)nnc21)CCOc1ccc(C(=O)c2c(-c3ccc(O)cc3)sc3cc(O)ccc23)cc1 [I-4, (S)-2-(4-(4-chlorophenyl)-2,3,9-trimethyl-6H-thieno[3,2-f][1,2,4]triazolo[4,3-a][1,4]diazepin-6-yl)-N-(3-ethyl-1-(4-(6-hydroxy-2-(4-hydroxyphenyl)benzo[b]thiophene-3-carbonyl)phenoxy)-6,9,12,15-tetraoxa-3-azaheptadecan-17-yl) acetamide] | 500 to 2500 nM | < 50 nM |  |  |
| 50 to 500 nM | Cc1sc2c(c1C)C(c1ccc(N3CCC(C(=O)N4CCN(c5ccc([C@@H]6c7ccc(O)cc7CC[C@@H]6c6ccccc6)cc5)CC4)CC3)cc1)=N[C@@H](C)c1nnc(C)n1-2 [III-119] |  |  | 500 to 2500 nM | 50 to 500 nM |
| 50 to 500 nM | Cc1cc(N2CCN(CC3(O)CCN(c4ccc(C5=N[C@@H](C)c6nnc(C)n6-c6sc(C)c(C)c65)cc4)CC3)CC2)ccc1[C@H]1c2ccc(O)cc2CC[C@H]1c1ccc(F)cc1 [III-297] |  |  | 50 to 500 nM | 50 to 500 nM |
| 50 to 500 nM | Cc1sc2c(c1C)C(c1ccc(N3CC4(CC(CN5CCN(c6ccc([C@H]7c8ccc(O)cc8CC[C@H]7c7ccc(F)cc7)cc6)CC5)C4)C3)cc1)=N[C@@H](C)c1nnc(C)n1-2 [III-262] |  |  | 500 to 2500 nM | 50 to 500 nM |
| < 50 nM | Cc1sc2c(c1C)C(c1ccc(N3CCC(O)(CN4CCN(c5cc(F)c([C@@H]6c7ccc(O)cc7CC[C@@H]6c6ccc(F)cc6)cc5F)CC4)CC3)cc1)=N[C@@H](C)c1nnc(C)n1-2 [III-256] |  |  | 500 to 2500 nM | < 50 nM |
| < 50 nM | Cc1sc2c(c1C)C(c1ccc(N3CCC(O)(CN4CCN(c5ccc(C6=C(c7ccccc7)CCCc7cc(C(=O)O)ccc76)c(F)c5)CC4)CC3)cc1)=N[C@@H](C)c1nnc(C)n1-2 [IV-28] |  |  | 500 to 2500 nM | < 50 nM |
| < 50 nM | Cc1sc2c(c1C)C(c1ccc(N3CC(CC4(O)CCN(c5ccc([C@@H]6c7ccc(O)cc7CC[C@@H]6c6ccccc6)cc5)CC4)C3)cc1)=N[C@@H](C)c1nnc(C)n1-2 [III-158] |  |  | 50 to 500 nM | < 50 nM |
| < 50 nM | COc1cc(N2CCN(CC3(O)CCN(c4ccc(C5=N[C@@H](C)c6nnc(C)n6-c6sc(C)c(C)c65)cc4)CC3)CC2)c(F)cc1[C@@H]1c2ccc(O)cc2CC[C@@H]1c1ccccc1 (single isomer, unassigned) [III-311] |  |  | 500 to 2500 nM | < 50 nM |
| < 50 nM | COc1cc(N2CCN(CC3(O)CCN(c4cc(F)c(C5=N[C@@H](C)c6nnc(C)n6-c6sc(C)c(C)c65)cc4F)CC3)CC2)c(F)cc1[C@@H]1c2ccc(O)cc2CC[C@@H]1c1ccccc1 [III-341, 1-(2,5-difluoro-4-((6S)-2,3,6,9-tetramethyl-6H-thieno[3,2-f][1,2,4]triazolo[4,3-a][1,4]diazepin-4-yl)phenyl)-4-((4-(2-fluoro-4-((1S,2S)-6-hydroxy-2-phenyl-1,2,3,4-tetrahydronaphthalen-1-yl)-5-methoxyphenyl)piperazin-1-yl)methyl)piperidin-4-ol] |  |  | > 2500 nM | < 50 nM |
| 50 to 500 nM | Cc1sc2c(c1C)C(c1ccc(C3CN(CC4(O)CCN(CC5CN(c6ccc([C@@H]7c8ccc(O)cc8CC[C@@H]7c7ccccc7)cc6)C5)CC4)C3)cc1)=N[C@@H](Cc1ncco1)c1nnc(C)n1-2 [III-169] |  |  | 50 to 500 nM | < 50 nM |
| 50 to 500 nM | Cc1sc2c(c1C)C(c1ccc(N3CCC(O)(CN4CCN(c5cc(F)c([C@H]6c7ccc(O)cc7CC[C@H]6c6ccccc6)cc5F)CC4)CC3)cc1)=N[C@@H](C)c1nnc(C)n1-2 [III-247] |  |  | 50 to 500 nM | < 50 nM |
| < 50 nM | Cc1sc2c(c1C)C(c1ccc(OCCOCCCN3CC(Nc4ccc([C@@H]5c6ccc7n[nH]cc7c6C[C@@H](C)N5CC(F)(F)F)nc4)C3)cc1)=N[C@@H](C)c1nnc(C)n1-2 [I-57] |  |  | 500 to 2500 nM | < 50 nM |
| < 50 nM | Cc1sc2c(c1C)C(c1ccc(N3CCC(O)(CN4CCN(c5ccc([C@@H]6c7ccc(O)cc7CC[C@@H]6c6cccc(F)c6F)c(F)c5)CC4)CC3)cc1)=N[C@@H](C)c1nnc(C)n1-2 [III-272] |  |  | 500 to 2500 nM | < 50 nM |
| 50 to 500 nM | Cc1sc2c(c1C)C(c1ccc(N3CCC(O)(CN4CCN(c5ccc([C@@H]6c7ccc(C(=O)O)cc7CC[C@@H]6c6ccccc6)cc5)CC4)CC3)cc1)=N[C@H](Cc1ncco1)c1nnc(C)n1-2 [III-201] |  |  | 50 to 500 nM | 50 to 500 nM |
| 50 to 500 nM | Cc1sc2c(c1C)C(c1ccc(N3CC(N4CCN(CCOc5ccc([C@H]6c7ccc(O)cc7CC[C@H]6c6ccccc6)cc5)CC4)C3)cc1)=N[C@@H](Cc1ncco1)c1nnc(C)n1-2 [III-114] |  |  | 50 to 500 nM | < 50 nM |
| 50 to 500 nM | Cc1sc2c(c1C)C(c1ccc(N3CCC(O)(CN4CCN(c5ccc(C6=C(c7ccc(Cl)cc7Cl)CCCc7cc(O)ccc76)cc5)CC4)CC3)cc1)=N[C@@H](C)c1nnc(C)n1-2 [IV-19] |  |  | 500 to 2500 nM | < 50 nM |
| < 50 nM | Cc1sc2c(c1C)C(c1ccc(N3CCC(O)(CN4CCN(c5cc(F)c([C@@H]6c7ccc(O)cc7CC[C@@H]6c6ccc(F)cc6)c(F)c5)CC4)CC3)cc1)=N[C@@H](C)c1nnc(C)n1-2 [III-236] |  |  | 500 to 2500 nM | < 50 nM |
| 50 to 500 nM | COc1cc(N2CCN(CC3(O)CCN(c4cc(F)c(C5=N[C@@H](C)c6nnc(C)n6-c6sc(C)c(C)c65)cc4F)CC3)CC2)ccc1[C@H]1c2ccc(O)cc2CC[C@H]1c1ccccc1 [III-340, 1-(2,5-difluoro-4-((S)-2,3,6,9-tetramethyl-6H-thieno[3,2-f][1,2,4]triazolo[4,3-a][1,4]diazepin-4-yl)phenyl)-4-((4-(4-((1R,2R)-6-hydroxy-2-phenyl-1,2,3,4-tetrahydronaphthalen-1-yl)-3-methoxyphenyl)piperazin-1-yl)methyl)piperidin-4-ol] |  |  | 50 to 500 nM | 50 to 500 nM |
| 50 to 500 nM | Cc1sc2c(c1C)C(c1ccc(N[C@H]3CC[C@H](CNCCOc4ccc([C@@H]5c6ccc(O)cc6CC[C@@H]5c5ccccc5)cc4)CC3)cc1)=NC(Cc1ncco1)c1nnc(C)n1-2 (stereo partly drawn) [III-43] |  |  | 50 to 500 nM | < 50 nM |
| 50 to 500 nM | Cc1sc2c(c1C)C(c1ccc(N3CCN(C[C@@H]4[C@H]5CN(c6ccc([C@@H]7c8ccc(O)cc8CC[C@@H]7c7ccccc7)cc6)C[C@@H]45)CC3)cc1)=N[C@@H](C)c1nnc(C)n1-2 [III-23] |  |  | > 2500 nM | < 50 nM |
| < 50 nM | COc1cc(N2CCN(CC3(O)CCN(c4ccc(C5=N[C@@H](C)c6nnc(C)n6-c6sc(C)c(C)c65)c(F)c4)CC3)CC2)ccc1[C@@H]1c2ccc(O)cc2CC[C@@H]1c1cccc(F)c1 (single isomer, unassigned) [III-344] |  |  | 500 to 2500 nM | < 50 nM |
| 50 to 500 nM | Cc1sc2c(c1C)C(c1ccc(N3CCC4(CC3)CC(NCCOc3ccc([C@@H]5c6ccc(O)cc6CC[C@@H]5c5ccccc5)cc3)C4)cc1)=NC(Cc1ncco1)c1nnc(C)n1-2 (stereo partly drawn) [III-65] |  |  | 50 to 500 nM | < 50 nM |
| 50 to 500 nM | Cc1sc2c(c1C)C(c1ccc(N3CC4(C3)CC(O)(CN3CCN(c5cc(F)c([C@H]6c7ccc(O)cc7CC[C@H]6c6ccc(F)cc6)c(F)c5)CC3)C4)cc1)=N[C@@H](C)c1nnc(C)n1-2 [III-280] |  |  | 500 to 2500 nM | 50 to 500 nM |
| 50 to 500 nM | Cc1sc2c(c1C)C(c1ccc(N3CCC4(CC3)CN(CCOc3ccc([C@H]5c6ccc(O)cc6CC[C@H]5c5ccccc5)cc3)C4)cc1)=N[C@@H](C)c1nnc(C)n1-2 [III-79] |  |  | 50 to 500 nM | 50 to 500 nM |
| 50 to 500 nM | Cc1sc2c(c1C)C(c1ccc(C3CN(C[C@H]4C[C@H](CN5CC(c6ccc([C@@H]7c8ccc(O)cc8CC[C@@H]7c7ccccc7)cc6)C5)C4)C3)cc1)=N[C@@H](C)c1nnc(C)n1-2 [III-261] |  |  | 500 to 2500 nM | < 50 nM |
| < 50 nM | Cc1sc2c(c1C)C(c1ccc(N3CCC(O)(CN4CCN(c5ccc(C6=C(c7ccccc7Cl)CCCc7cc(O)ccc76)cc5)CC4)CC3)cc1)=N[C@@H](C)c1nnc(C)n1-2 [IV-20] |  |  | 500 to 2500 nM | < 50 nM |
| 50 to 500 nM | CC1=C(c2c(F)cc(F)cc2F)[C@@H](c2ccc(N3CCN(C(=O)C4CCN(c5ccc(C6=N[C@@H](C)c7nnc(C)n7-c7sc(C)c(C)c76)cc5)CC4)CC3)cc2)Oc2ccc(O)cc21 [V-14] |  |  | 500 to 2500 nM | 50 to 500 nM |
| 50 to 500 nM | Cc1sc2c(c1C)C(c1ccc(N3CCC(O)(CN4CCN(c5ccc([C@H]6c7ccc(O)cc7CC[C@H]6c6ccc(F)cc6F)cc5)CC4)CC3)cc1)=N[C@@H](C)c1nnc(C)n1-2 [III-183] |  |  | 500 to 2500 nM | < 50 nM |
| 50 to 500 nM | Cc1sc2c(c1C)C(c1ccc(NCC3CCCN(CCOc4ccc([C@@H]5c6ccc(O)cc6CC[C@@H]5c5ccccc5)cc4)C3)cc1)=NC(Cc1ncco1)c1nnc(C)n1-2 (stereo partly drawn) [III-53] |  |  | 50 to 500 nM | 50 to 500 nM |
